Assay results taken from paper PMC4798767, “Hydrophobicity of Antifungal β-Peptides Is Associated with Their Cytotoxic Effect on In Vitro Human Colon Caco-2 and Liver HepG2 Cells” (PLoS ONE, 2016).
≈ marks a conversion by molar mass, not a printed value. Entries after “also recorded” stand apart in the source; their conditions may differ.

Columns and labels:
[1] = HPLC-RP retention time as measure of β-peptide hydrophobicity; format: physicochemical; conditions: used to sort the β-peptides by hydrophobicity
Method: Fig 1 i. Structures of antifungal β-peptides used in this study. The codification (#number) corresponds to the nomenclature used by Lee et al. in a previous publication. β-peptide (e) is a fluorescently labeled β-peptide. The C-terminus is amidated for all β-peptides. ii. HPLC-RP retention time for the β-peptides synthesized in this work, see Figs A-D in S1 File for further details. TEXT PRINTED IN THE PICTURE: (ii) #4: Retention time tR: 24.5 ± 0.2 min | (ii) #21: Retention time tR: 25.2 ± 0.2 min | (ii) #5: Retention time tR: 25.4 ± 0.1 min | (ii) #16: Retention time tR: 27.4 ± 0.2 min
The experiments compiled here establish structural-functional correlations of the β-peptides as a function of the cytotoxicity in mammalian cells other than erythrocytes.

[2] = system: HepG2 cells; assay: cells; format: cell-based, human; conditions: for IC50 HepG2: 24 h
Method: (§1) HepG2 and Caco-2 were tittered from a culture at 70–80% confluence. HepG2 and Caco-2 cells were seeded at 13,000 and 9,000 cells, respectively, in a clear flat bottom 96-well plate with dark walls (Corning, NY, USA). Then they were allowed to adhere and proliferate in DMEM for 48 hours. Agents were prepared under the following conditions: β-peptides were dissolved and diluted in DMEM to the final working concentration; while AmpB and Keto were first dissolved in DMSO as a vehicle. The DMSO concentration was kept under 0.5% v/v in the experimental sample as well as in the untreated control cell media. Cells were exposed to the agent during 24 hours. Afterwards, the cells were washed two times with Hank’s Balanced Salt Solution (HBSS). Then, fresh DMEM was added to each plate and incubated until the control reached approximately 90% confluency. Cell viability was determined using CellTiter Blue™ (Promega, WI, USA), an assay based on the capacity of cells to reduce resazurin to resorufin, a fluorescent product whose intensity is proportional to the viable cells in the sample. […] After incubation, the fluorescence was measured using a Spectra Max Gemini EM spectrofluorometer (560Ex/590Em) (Sunnyvale, CA, USA). The long-term effect of the treatments with β-peptides was assessed using the model peptide (ACHC-β3hV-β3hK) in a clonogenic assay. In these assays, 1.25x10^5 and 9x10^4 cells/ml from HepG2 and Caco-2, respectively, were seeded in a 25cm^2 flask. The media was changed every two days. Once cells reached a confluence between 70–80%, they were treated in the flask with (ACHC-β3hV-β3hK) at 20 μg/mL in DMEM, a sub-lethal concentration, for 24 hours. They were then washed two times with PBS and allowed to recover in fresh medium for six hours, followed by trypsinization and tittering.
(§2) In vitro cytotoxicity assessments for HepG2 and Caco-2 were performed two independent times, each with four replicates (n = 8). A multivariate study of the data was performed through PCA to ascertain the impact of increasing β-peptide hydrophobicity on the viability of the treated cells. PCA was done using XLSTAT 2014 trial version, under a Pearson approach. The input matrix set to the program consisted of eleven rows and four columns of data. The first column contained the concentrations tested and the remainder columns contained the viability ratio obtained after exposure to the β-peptides #4, #5, and #16 (see Fig 1ii). The data of β-peptide #21 was not used in this analysis due to structural differences (lack of ACHC residues), which affects the molecule’s helicity. The ratio IC50/MICaver represents the selectivity of the β-peptides for the fungal cells over that of host cells, termed selectivity index (SI). For the purpose of the present study the SIs were calculated based on MICs for C. albicans published previously.

[3] = system: Caco-2 cells; assay: In vitro cytotoxicity, CellTiter Blue viability, dose-effect curves; format: cell-based; conditions: for IC50 Caco-2: 24 h
Method: as §1, §2

[4] = system: Caco-2 cells; assay: Clonogenic assay, long-term effect; format: cell-based; conditions: Caco-2, 20 μg/mL for 24 hours
Method: as §1
(§3) The long-term cytotoxic effect of β-peptides was evaluated using clonogenic assays (see Fig F in S1 File). In order to validate the data obtained from the dose-response curves for Caco-2 and HepG2, (ACHC-β3hV-β3hK) was selected as a β-peptide model to perform these assays due to its well-established biological activity against C. albicans, its hemolytic activity, and, with this study, its effect on HepG2 and Caco-2. A constant concentration of 20 μg/mL was chosen for these experiments. The chosen concentration of (ACHC-β3hV-β3hK) falls within the range of concentrations used in short-term assays, where 20 μg/mL of this β-peptide assured that both of the cell lines were affected to the same extent.

[5] = system: HepG2 cells; assay: Clonogenic assay, long-term effect; format: cell-based; conditions: HepG2, 20 μg/mL for 24 hours
Method: as §1, §3

[6] = two independent times, each three biological replicates

Compound: CC(C)[C@@H](CC(=O)N[C@@H](CCCNC(=N)N)CC(N)=O)NC(=O)[C@H]1CCCC[C@@H]1NC(=O)C[C@H](CCCNC(=N)N)NC(=O)C[C@@H](NC(=O)[C@H]1CCCC[C@@H]1NC(=O)C[C@H](CCCNC(=N)N)NC(=O)C[C@@H](NC(=O)[C@H]1CCCC[C@@H]1N)C(C)C)C(C)C [#5, NH2-(ACHC-β^3hVal-β^3hArg)3]
- Retention time tR [1]: 25.4 ± 0.1 min
- IC50 HepG2 [2]: 47.25 ± 5.12 µg/mL (≈ 38 µM)
- IC50 Caco-2 [3]: 43.33 ± 9.0 µg/mL (≈ 34.9 µM)

Compound: COc1ccc2cc(C(=O)NCCOCCOCC(=O)N[C@H]3CCCC[C@@H]3C(=O)N[C@H](CC(=O)N[C@@H](CCCCN)CC(=O)N[C@H]3CCCC[C@@H]3C(=O)N[C@H](CC(=O)N[C@@H](CCCCN)CC(=O)N[C@H]3CCCC[C@@H]3C(=O)N[C@H](CC(=O)N[C@@H](CCCCN)CC(N)=O)C(C)C)C(C)C)C(C)C)c(=O)oc2c1 [coumarin-(ACHC-β3hV-β3hK)]
- effect on viability at 16 μg/mL [2]: does not exert a significant effect on viability

Compound: CC(=O)N1CCN(c2ccc(OCC3COC(Cn4ccnc4)(c4ccc(Cl)cc4Cl)O3)cc2)CC1 (stereo not shown) [Keto, ketoconazole, reference compound]
- IC50 ([2]; Homo sapiens, HepG2, 24 hours of exposure, CellTiter Blue, two independent experiments, each four replicates (n = 8)): 70 µg/mL (≈ 132 µM)
- cytotoxicity towards Caco-2, dose-effect curve in words ([3]; 24 hours of exposure, tested concentration range): not statistically different than the response observed for HepG2

Compound: C[C@@H]1[C@H](O)[C@@H](C)/C=C/C=C/C=C/C=C/C=C/C=C/C=C/[C@H](O[C@@H]2O[C@H](C)[C@@H](O)[C@H](N)[C@@H]2O)C[C@@H]2O[C@](O)(C[C@@H](O)C[C@@H](O)[C@H](O)CC[C@@H](O)C[C@@H](O)CC(=O)O[C@H]1C)C[C@H](O)[C@H]2C(=O)O [AmpB, Amphotericin B, reference compound]
- cytotoxicity towards HepG2, dose-effect curve in words [2]: did not reach 100% cytotoxicity
- IC30 HepG2 ([2]; 24 hours of exposure, from dose-effect curve): 30 µg/mL (≈ 32.5 µM)
- inhibition at 30 µg/mL ([2]; Homo sapiens, HepG2, 30 μg/mL, 24 hours of exposure): 30%
- cytotoxicity towards Caco-2, dose-effect curve in words ([3]; Caco-2): did not affect the viability

Compound: NCCCC[C@@H](CC(N)=O)NC(=O)C[C@H](Cc1ccccc1)NC(=O)[C@H]1CCCC[C@@H]1NC(=O)C[C@H](CCCCN)NC(=O)C[C@H](Cc1ccccc1)NC(=O)[C@H]1CCCC[C@@H]1NC(=O)C[C@H](CCCCN)NC(=O)C[C@H](Cc1ccccc1)NC(=O)[C@H]1CCCC[C@@H]1NC(=O)C[C@@H](N)Cc1ccc(O)cc1 [#16, NH2-β^3hTyr-(ACHC-β^3hPhe-β^3hLys)3]
- cytotoxicity towards HepG2, dose-effect curve in words [2]: greatest toxic effect at these lower concentrations
- IC50 HepG2 [2]: 42.5 ± 6.21 µg/mL (≈ 28.7 µM)

Compound: CC(C)[C@@H](CC(=O)N[C@@H](CCCNC(=N)N)CC(=O)N[C@H](CC(=O)N[C@H](CC(=O)N[C@@H](CCCNC(=N)N)CC(=O)N[C@H](CC(=O)N[C@H](CC(=O)N[C@@H](CCCNC(=N)N)CC(N)=O)C(C)C)C(C)C)C(C)C)C(C)C)NC(=O)C[C@@H](NC(=O)C[C@@H](N)Cc1ccc(O)cc1)C(C)C [#21, NH2-β^3hTyr-(β^3hVal-β^3hVal-β^3hArg)3]
- Retention time tR [1]: 25.2 ± 0.2 min
- IC50 HepG2 [2]: 52.5 ± 4.98 µg/mL (≈ 37.9 µM)
- IC50 Caco-2 [3]: 31.33 ± 3.27 µg/mL (≈ 22.6 µM)

Compound: CC(C)[C@@H](CC(=O)N[C@@H](CCCCN)CC(N)=O)NC(=O)[C@H]1CCCC[C@@H]1NC(=O)C[C@H](CCCCN)NC(=O)C[C@@H](NC(=O)[C@H]1CCCC[C@@H]1NC(=O)C[C@H](CCCCN)NC(=O)C[C@@H](NC(=O)[C@H]1CCCC[C@@H]1N)C(C)C)C(C)C [#4, NH2-(ACHC-β^3hVal-β^3hLys)3]
- Retention time tR [1]: 24.5 ± 0.2 min
- IC50 HepG2 [2]: 38.75 ± 0.89 µg/mL (≈ 33.4 µM)
- IC50 Caco-2 [3]: 27.33 ± 1.5 µg/mL (≈ 23.6 µM)
- surviving fraction (long-term) versus short-term viability; colony forming ability ([4]; listed as (ACHC-β3hV-β3hK)): no significant difference; also recorded: slight decrease in colony forming ability
- plating efficiency of treated cells [4, 6]: > 22%
- surviving fraction (long-term) versus short-term viability [5]: no significant difference
- plating efficiency of treated cells [5, 6]: > 9.5%
